Data on two compounds can be found in patent publication EP0675728B1, “PRODUCTS AND METHODS FOR IMPROVING KE[…] TO THE DERMIS” (STATE OF OREGON BY AND THROUGH OREGON STATE BOARD OF HIGHER …, priority 1992, dated 1994).

For one assay, the system named is keratinocytes. The following applies: just-subconfluent keratinocyte cultures, 60 minutes' incubation; BM165 mAb 50 µg/mL, 10-mM EDTA.

Method for keratinocytes: Cells were grown in Keratinocyte Growth Medium (KGM) containing 0.15 mM CaCl2 and subcultured according to the manufacturer's instructions (Clonetics). For most immunocytochemical experiments, first- or second-passage cells were grown in glass or plastic chamber slides (Lab-Tek) or on glass cover slips to approximately 80 percent confluency. For large-scale collection, spent-media cells were grown in 150-cm^2 tissue culture dishes and fed three times per week with 15 mL fresh media.
Keratinocytes were grown to near confluence and either fixed immediately (FIGS. 4B and 4D) or washed with PBS and incubated with BM165 mAb (50 µg/mL) followed by 5-nm gold-conjugated secondary antibody prior to fixation (FIGS. 4A and 4C).
To further pursue these observations, just-subconfluent keratinocyte cultures were separately incubated with purified BM165 mAb for 10 and 60 minutes. After incubation, the cultures were photographed (FIGS. 5A-F). Purified mAbs in PBS, PBS alone, or 10-mM EDTA were incubated with keratinocytes in parallel. Parallel cultures were also incubated with anti-type-VII monoclonal IgG in PBS for the corresponding same length of time.

For `O=C(O)CN(CCN(CC(=O)O)CC(=O)O)CC(=O)O` [EDTA], the “rounding and detachment of dermal fibroblasts” value with Dermal fibroblasts was “rounded and detached”. For the same compound, the “rounding and detachment of the keratinocytes” value with keratinocytes is “extensive rounding and detachment”.
`COc1cc2c(c(OC)c1OC)-c1ccc(OC)c(=O)cc1[C@@H](NC(C)=O)CC2` [colchicine]: the “secretion of kalinin into the medium” value in the assay on secretion of kalinin is “inhibited”.
